Measurements as given in ChEMBL document CHEMBL5291721, “A preclinical secondary pharmacology resource illuminates target-adverse drug reaction associations of marketed drugs” (Nat Commun, 2023).

How the values were obtained:
[1] = target: Beta-3 adrenergic receptor (Homo sapiens, UniProt P13945)
[2] = target: Voltage-dependent N-type calcium channel subunit alpha-1B (Rattus norvegicus, UniProt Q02294); format: functional
[3] = target: T1, D(4) dopamine receptor (Homo sapiens, UniProt P21917)
T1 sequence (P21917 whole entry): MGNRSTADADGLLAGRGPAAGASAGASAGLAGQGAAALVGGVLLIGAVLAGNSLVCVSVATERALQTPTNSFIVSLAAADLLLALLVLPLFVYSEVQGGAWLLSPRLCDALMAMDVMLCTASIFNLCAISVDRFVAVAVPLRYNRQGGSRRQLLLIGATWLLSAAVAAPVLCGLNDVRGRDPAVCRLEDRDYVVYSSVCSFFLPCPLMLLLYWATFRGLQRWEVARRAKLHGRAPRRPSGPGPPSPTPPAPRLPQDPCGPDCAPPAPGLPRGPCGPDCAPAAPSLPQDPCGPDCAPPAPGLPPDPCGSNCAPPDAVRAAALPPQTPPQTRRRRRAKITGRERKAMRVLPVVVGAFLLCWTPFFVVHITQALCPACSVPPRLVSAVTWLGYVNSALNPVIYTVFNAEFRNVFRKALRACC

[4] = target: T2, Gastric inhibitory polypeptide receptor (Homo sapiens, UniProt P48546)
T2 sequence (P48546 whole entry): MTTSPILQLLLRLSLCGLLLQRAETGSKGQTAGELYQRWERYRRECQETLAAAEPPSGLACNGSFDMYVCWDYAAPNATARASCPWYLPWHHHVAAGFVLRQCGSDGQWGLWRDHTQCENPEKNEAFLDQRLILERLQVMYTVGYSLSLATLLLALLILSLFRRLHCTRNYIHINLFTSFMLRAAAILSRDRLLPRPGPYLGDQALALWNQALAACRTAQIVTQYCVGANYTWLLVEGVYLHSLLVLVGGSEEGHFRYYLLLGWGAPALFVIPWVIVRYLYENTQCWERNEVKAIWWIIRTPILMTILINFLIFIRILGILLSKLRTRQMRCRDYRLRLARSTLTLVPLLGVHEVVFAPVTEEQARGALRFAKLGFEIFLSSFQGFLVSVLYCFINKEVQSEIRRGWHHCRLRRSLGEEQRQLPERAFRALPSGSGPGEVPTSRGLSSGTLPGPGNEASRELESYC

[5] = target: T3, Progesterone receptor (Homo sapiens, UniProt P06401)
T3 sequence (P06401 whole entry): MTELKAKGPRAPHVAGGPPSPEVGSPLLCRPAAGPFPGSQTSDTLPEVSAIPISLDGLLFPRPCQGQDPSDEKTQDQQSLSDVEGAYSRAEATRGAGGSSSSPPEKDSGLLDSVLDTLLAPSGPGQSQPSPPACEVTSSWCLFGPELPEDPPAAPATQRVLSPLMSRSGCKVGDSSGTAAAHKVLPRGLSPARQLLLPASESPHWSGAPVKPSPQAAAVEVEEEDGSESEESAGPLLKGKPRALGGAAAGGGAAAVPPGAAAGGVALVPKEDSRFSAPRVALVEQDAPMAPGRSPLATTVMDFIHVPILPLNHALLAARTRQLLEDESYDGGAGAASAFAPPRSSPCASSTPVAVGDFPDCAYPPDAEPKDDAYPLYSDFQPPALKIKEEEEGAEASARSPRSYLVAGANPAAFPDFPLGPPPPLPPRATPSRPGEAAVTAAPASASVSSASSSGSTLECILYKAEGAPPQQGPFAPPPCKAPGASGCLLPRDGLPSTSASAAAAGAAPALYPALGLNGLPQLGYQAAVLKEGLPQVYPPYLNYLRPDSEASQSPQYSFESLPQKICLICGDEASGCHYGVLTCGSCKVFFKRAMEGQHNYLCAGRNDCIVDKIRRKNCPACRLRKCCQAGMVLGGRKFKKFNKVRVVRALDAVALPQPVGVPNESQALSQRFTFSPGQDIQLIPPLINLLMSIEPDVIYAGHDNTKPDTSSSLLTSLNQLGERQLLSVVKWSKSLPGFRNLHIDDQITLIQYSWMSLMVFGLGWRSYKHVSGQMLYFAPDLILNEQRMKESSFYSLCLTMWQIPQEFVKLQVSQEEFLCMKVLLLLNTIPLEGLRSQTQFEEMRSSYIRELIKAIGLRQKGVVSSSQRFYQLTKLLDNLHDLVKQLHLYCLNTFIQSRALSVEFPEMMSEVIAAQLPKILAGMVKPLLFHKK

[6] = target: T4, Alpha-1A adrenergic receptor (Homo sapiens, UniProt P35348)
T4 sequence (P35348 whole entry): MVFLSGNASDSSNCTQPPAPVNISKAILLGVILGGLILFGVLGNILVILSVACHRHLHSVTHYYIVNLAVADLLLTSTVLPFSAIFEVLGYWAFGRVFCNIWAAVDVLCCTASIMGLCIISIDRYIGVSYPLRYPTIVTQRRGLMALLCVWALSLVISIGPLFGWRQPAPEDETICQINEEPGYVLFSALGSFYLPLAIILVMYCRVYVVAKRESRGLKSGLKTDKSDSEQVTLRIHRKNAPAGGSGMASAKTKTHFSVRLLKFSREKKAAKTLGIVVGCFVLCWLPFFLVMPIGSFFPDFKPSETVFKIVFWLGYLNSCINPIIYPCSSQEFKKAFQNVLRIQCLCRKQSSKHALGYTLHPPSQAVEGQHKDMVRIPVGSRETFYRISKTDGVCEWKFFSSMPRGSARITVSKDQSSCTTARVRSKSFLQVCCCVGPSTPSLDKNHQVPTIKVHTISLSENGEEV

[7] = target: T5, Peroxisome proliferator-activated receptor gamma (Homo sapiens, UniProt P37231); format: functional
T5 sequence (P37231 whole entry): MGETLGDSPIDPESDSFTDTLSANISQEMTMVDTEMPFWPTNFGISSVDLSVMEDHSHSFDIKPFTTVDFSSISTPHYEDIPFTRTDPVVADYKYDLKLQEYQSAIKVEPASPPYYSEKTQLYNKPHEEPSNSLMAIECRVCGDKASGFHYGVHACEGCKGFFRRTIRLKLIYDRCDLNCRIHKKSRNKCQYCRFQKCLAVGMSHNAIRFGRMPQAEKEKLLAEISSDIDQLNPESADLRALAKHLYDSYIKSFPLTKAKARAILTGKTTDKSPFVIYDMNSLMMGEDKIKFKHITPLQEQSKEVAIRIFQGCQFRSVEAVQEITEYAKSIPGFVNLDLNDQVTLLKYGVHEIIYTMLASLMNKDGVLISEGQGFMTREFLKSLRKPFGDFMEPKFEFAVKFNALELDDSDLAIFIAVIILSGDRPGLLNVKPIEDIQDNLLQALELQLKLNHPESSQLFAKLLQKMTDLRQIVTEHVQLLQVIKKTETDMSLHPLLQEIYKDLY

[8] = target: Substance-P receptor (Homo sapiens, UniProt P25103)
Further: assay procedure not described here.

Chain of Voltage-dependent N-type calcium channel subunit alpha-1B (Q02294 whole entry): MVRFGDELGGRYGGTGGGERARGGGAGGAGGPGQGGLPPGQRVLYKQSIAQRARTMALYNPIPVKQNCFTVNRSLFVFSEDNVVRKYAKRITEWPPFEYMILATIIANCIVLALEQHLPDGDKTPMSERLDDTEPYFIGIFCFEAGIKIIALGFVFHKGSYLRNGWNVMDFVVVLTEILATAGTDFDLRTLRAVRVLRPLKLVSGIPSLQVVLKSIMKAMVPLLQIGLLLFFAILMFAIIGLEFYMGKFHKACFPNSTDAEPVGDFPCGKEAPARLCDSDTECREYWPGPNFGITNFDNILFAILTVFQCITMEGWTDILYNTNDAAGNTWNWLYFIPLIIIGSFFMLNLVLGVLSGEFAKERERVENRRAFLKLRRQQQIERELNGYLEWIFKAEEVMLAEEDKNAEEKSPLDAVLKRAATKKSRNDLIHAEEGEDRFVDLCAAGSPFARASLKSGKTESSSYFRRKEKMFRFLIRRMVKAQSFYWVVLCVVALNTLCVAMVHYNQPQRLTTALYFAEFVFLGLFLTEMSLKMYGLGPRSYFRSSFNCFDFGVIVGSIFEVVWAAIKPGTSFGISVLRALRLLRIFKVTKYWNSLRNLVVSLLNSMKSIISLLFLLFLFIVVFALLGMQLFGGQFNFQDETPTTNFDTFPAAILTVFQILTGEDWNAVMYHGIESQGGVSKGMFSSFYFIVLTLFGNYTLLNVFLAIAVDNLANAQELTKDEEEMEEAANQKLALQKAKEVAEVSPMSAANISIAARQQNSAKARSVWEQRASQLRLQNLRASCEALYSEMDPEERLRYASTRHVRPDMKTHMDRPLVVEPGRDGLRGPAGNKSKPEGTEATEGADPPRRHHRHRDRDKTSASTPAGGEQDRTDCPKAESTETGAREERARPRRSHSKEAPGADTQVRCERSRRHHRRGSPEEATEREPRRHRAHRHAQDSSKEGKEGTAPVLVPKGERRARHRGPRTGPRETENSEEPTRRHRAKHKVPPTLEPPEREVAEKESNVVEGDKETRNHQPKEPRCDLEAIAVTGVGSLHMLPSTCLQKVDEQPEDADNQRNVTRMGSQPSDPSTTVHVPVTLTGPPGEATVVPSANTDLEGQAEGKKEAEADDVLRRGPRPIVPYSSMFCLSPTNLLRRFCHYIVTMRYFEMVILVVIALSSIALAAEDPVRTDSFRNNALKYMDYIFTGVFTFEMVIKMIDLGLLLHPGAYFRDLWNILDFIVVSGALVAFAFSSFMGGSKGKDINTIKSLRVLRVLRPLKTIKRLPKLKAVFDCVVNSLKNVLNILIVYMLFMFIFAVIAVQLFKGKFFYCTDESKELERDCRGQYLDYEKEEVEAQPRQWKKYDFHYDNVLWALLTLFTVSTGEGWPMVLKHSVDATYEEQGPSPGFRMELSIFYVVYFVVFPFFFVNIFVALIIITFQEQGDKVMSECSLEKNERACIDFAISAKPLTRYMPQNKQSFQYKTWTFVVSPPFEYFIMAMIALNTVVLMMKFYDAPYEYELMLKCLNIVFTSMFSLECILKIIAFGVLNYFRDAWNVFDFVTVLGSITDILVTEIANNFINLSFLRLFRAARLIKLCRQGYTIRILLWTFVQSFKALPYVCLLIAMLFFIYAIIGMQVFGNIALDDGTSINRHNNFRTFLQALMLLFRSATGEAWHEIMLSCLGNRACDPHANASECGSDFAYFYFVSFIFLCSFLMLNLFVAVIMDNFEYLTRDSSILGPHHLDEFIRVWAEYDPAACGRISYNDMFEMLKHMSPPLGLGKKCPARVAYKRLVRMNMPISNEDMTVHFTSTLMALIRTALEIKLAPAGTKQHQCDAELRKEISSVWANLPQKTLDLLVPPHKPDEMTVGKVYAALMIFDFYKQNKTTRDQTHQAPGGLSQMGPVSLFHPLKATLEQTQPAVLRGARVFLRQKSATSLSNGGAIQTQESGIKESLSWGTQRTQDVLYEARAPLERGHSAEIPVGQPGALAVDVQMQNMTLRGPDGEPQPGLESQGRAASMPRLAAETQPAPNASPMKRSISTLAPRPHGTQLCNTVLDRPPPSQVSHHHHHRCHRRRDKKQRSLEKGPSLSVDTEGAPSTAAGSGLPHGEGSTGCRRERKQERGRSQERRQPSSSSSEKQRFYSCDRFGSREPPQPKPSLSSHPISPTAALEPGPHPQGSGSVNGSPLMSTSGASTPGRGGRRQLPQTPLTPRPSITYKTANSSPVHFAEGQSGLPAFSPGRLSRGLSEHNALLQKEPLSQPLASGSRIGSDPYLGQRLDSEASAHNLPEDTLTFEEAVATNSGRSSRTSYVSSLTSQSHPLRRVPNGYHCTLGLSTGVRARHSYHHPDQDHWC
Chain of Beta-3 adrenergic receptor (P13945 whole entry): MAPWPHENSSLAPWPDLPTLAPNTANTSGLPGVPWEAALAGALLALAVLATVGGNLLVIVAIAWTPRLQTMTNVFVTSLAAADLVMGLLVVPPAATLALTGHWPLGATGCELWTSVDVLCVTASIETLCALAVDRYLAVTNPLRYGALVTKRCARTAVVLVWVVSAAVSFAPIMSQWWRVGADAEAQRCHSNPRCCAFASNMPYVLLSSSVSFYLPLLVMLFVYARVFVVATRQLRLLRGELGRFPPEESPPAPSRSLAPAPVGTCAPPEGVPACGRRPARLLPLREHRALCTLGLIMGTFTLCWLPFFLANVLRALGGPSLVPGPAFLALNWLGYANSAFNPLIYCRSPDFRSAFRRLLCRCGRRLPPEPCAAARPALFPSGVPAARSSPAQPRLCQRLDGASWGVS
Chain of Substance-P receptor (P25103 whole entry): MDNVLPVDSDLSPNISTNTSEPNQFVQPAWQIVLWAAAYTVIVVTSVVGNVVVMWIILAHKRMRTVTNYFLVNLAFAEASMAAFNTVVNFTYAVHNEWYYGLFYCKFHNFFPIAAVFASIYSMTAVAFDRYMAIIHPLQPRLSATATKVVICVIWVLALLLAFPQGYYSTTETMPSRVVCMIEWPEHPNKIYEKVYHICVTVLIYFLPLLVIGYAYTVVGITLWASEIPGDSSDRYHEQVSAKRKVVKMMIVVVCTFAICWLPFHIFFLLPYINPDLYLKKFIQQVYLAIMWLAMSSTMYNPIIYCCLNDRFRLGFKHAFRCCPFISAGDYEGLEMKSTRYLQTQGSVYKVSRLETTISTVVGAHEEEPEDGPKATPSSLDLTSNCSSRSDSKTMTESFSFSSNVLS

CNS(=O)(=O)Cc1ccc2[nH]cc(CCN(C)C)c2c1
AC50 [1]: > 30 µM
AC50 [2]: > 10 µM
AC50 [3]: > 10 µM
AC50 [4]: > 30 µM
AC50 [5]: > 30 µM
AC50 [6]: > 10 µM

CC(=O)O[C@H]1CC[C@@]2(C)C(=CC[C@@H]3[C@@H]2CC[C@]2(C)C(c4cccnc4)=CC[C@@H]32)C1 [ABIRATERONE ACETATE]
AC50 [5]: 3.1 µM
AC50 [7]: > 30 µM

CO/N=C(\C(=O)N[C@@H]1C(=O)N2C(C(=O)O)=C(CSc3nnnn3C)CS[C@H]12)c1csc(N)n1 [CEFMENOXIME]
AC50 [7]: > 30 µM

CCN1CCN(C(=O)N[C@@H](C(=O)N[C@@H]2C(=O)N3C(C(=O)O)=C(CSc4nnnn4C)CS[C@H]23)c2ccc(O)cc2)C(=O)C1=O [CEFOPERAZONE]
AC50 [7]: > 30 µM

COc1ccc2c3c1O[C@H]1[C@@H](O)C=C[C@H]4[C@@H](C2)N(C)CC[C@@]341 [CODEINE]
AC50 [1]: > 30 µM
AC50 [2]: > 10 µM
AC50 [3]: > 10 µM
AC50 [4]: > 30 µM
AC50 [5]: > 30 µM
AC50 [8]: > 10 µM
AC50 [6]: > 10 µM

CCCCc1ncc(/C=C(\Cc2cccs2)C(=O)O)n1Cc1ccc(C(=O)O)cc1 [EPROSARTAN]
AC50 [1]: > 30 µM
AC50 [2]: > 10 µM
AC50 [3]: > 10 µM
AC50 [4]: > 30 µM
AC50 [5]: > 30 µM
AC50 [8]: > 10 µM
AC50 [6]: > 10 µM

CCc1c(Cl)c(O)c(Cl)c(O)c1C(=O)O[C@H]1[C@H](O)[C@H](OC)[C@H](OC/C2=C\C=C\C[C@H](O)/C(C)=C/[C@H](CC)[C@@H](O[C@@H]3OC(C)(C)[C@@H](OC(=O)C(C)C)[C@H](O)[C@@H]3O)/C(C)=C/C(C)=C/C[C@@H]([C@@H](C)O)OC2=O)O[C@@H]1C [FIDAXOMICIN]
AC50 [1]: > 30 µM
AC50 [2]: > 10 µM
AC50 [3]: > 10 µM
AC50 [4]: > 30 µM
AC50 [5]: 11.3 µM
AC50 [8]: 5.92 µM
AC50 [6]: > 10 µM

CC(C)Cn1cnc2c(N)nc3ccccc3c21 [IMIQUIMOD]
AC50 [5]: > 30 µM

CC(C)(C)c1cc(C(C)(C)C)c(NC(=O)c2c[nH]c3ccccc3c2=O)cc1O [IVACAFTOR]
AC50 [1]: 4.4 µM
AC50 [2]: > 10 µM
AC50 [5]: > 30 µM

CC(C)OC(=O)CCC/C=C\C[C@@H]1[C@@H](CC[C@@H](O)CCc2ccccc2)[C@H](O)C[C@@H]1O [LATANOPROST]
AC50 [7]: > 30 µM

CCC1(CC)C(=O)NCC(C)C1=O (configuration not stated) [METHYPRYLON]
AC50 [7]: > 30 µM

CCCc1nc(C(C)(C)O)c(C(=O)OCc2oc(=O)oc2C)n1Cc1ccc(-c2ccccc2-c2nnn[nH]2)cc1 [OLMESARTAN MEDOXOMIL]
AC50 [1]: > 30 µM
AC50 [2]: > 10 µM
AC50 [3]: > 10 µM
AC50 [4]: > 30 µM
AC50 [5]: > 30 µM
AC50 [8]: > 10 µM
AC50 [6]: > 10 µM

N#Cc1ccc([C@H]2CCc3cncn32)c(F)c1 [OSILODROSTAT]
AC50 [2]: > 10 µM
AC50 [3]: > 10 µM
AC50 [8]: > 10 µM
AC50 [6]: > 10 µM

CC[C@@H]1C(=O)OC[C@@H]1Cc1cncn1C [PILOCARPINE]
AC50 [2]: > 10 µM
AC50 [5]: > 30 µM

CCCN(CCC)C(=O)C(CCC(=O)O)NC(=O)c1ccccc1 (configuration not stated) [PROGLUMIDE]
AC50 [1]: > 30 µM
AC50 [2]: > 10 µM
AC50 [3]: > 10 µM
AC50 [4]: > 30 µM
AC50 [5]: > 30 µM
AC50 [8]: > 10 µM

CN1C(=O)C(O)N=C(c2ccccc2)c2cc(Cl)ccc21 (configuration not stated) [TEMAZEPAM]
AC50 [1]: > 30 µM
AC50 [2]: > 10 µM
AC50 [3]: > 10 µM
AC50 [4]: > 30 µM
AC50 [5]: > 30 µM
AC50 [8]: > 10 µM
AC50 [6]: > 10 µM

CCN(CC)C(=O)N[C@H]1C[C@@H]2c3cccc4[nH]cc(c34)C[C@H]2N(C)C1 [TERGURIDE]
AC50 [7]: > 30 µM

C/C(O)=C(\C#N)C(=O)Nc1ccc(C(F)(F)F)cc1 [TERIFLUNOMIDE]
AC50 [7]: > 30 µM

CN1CCN(CC/C=C2/c3ccccc3Sc3ccc(S(=O)(=O)N(C)C)cc32)CC1 [THIOTHIXENE]
AC50 [1]: > 30 µM
AC50 [2]: > 10 µM
AC50 [3]: 0.78 µM
AC50 [4]: > 30 µM
AC50 [5]: > 30 µM
AC50 [8]: 3.84 µM
AC50 [6]: 0.0624 µM
